Laboratory results from PubChem BioAssay (NCI).
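1) Cells in 96-well plates. 2) Compound, 48 h, 5 concentrations. 3) Linear interpolation between surrounding doses. 4) Unreached endpoint = highest concentration. TGI: total growth inhibition.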

Experiments:
Assay in all cases: NCI tumour cell line growth inhibition, 48 h
[1] = tested on: MALME-3M melanoma
[2] = tested on: SR leukemia
[3] = tested on: SF-539 CNS
[4] = tested on: HCT-116 colon
[5] = tested on: LOX IMVI melanoma
[6] = tested on: SK-MEL-28 melanoma
[7] = tested on: MDA-N
[8] = tested on: K-562 leukemia
[9] = tested on: BT-549 breast
[10] = tested on: NCI-H23 lung
[11] = tested on: NCI-H460 lung
[12] = tested on: UACC-62 melanoma
[13] = tested on: SF-295 CNS
[14] = tested on: RPMI-8226 leukemia
[15] = tested on: SN12C renal
[16] = tested on: HOP-62 NSCLC
[17] = tested on: RXF 393 renal
[18] = tested on: COLO 205 colon
[19] = tested on: SF-268 CNS
[20] = tested on: OVCAR-3 ovarian
[21] = tested on: SK-MEL-5 melanoma
[22] = tested on: HT29 colon
[23] = tested on: HCT-15 colon
[24] = tested on: SW-620 colon
[25] = tested on: HL-60(TB) leukemia
[26] = tested on: U251 CNS
[27] = tested on: A498 renal
[28] = tested on: ACHN renal
[29] = tested on: SNB-19 CNS
[30] = tested on: IGROV1 ovarian
[31] = tested on: DU-145 prostate
[32] = tested on: CAKI-1 renal
[33] = tested on: OVCAR-4 ovarian
[34] = tested on: UO-31 renal
[35] = tested on: MDA-MB-435
[36] = tested on: HOP-92 NSCLC
[37] = tested on: A549 NSCLC
[38] = tested on: UACC-257 melanoma
[39] = tested on: M14 melanoma
[40] = tested on: OVCAR-5 ovarian
[41] = tested on: KM12 colon
[42] = tested on: NCI-H522 lung
[43] = tested on: OVCAR-8 ovarian
[44] = tested on: HCC-2998 colon
[45] = tested on: NCI/ADR-RES ovarian
[46] = tested on: MCF7 breast
[47] = tested on: SK-MEL-2 melanoma
[48] = tested on: 786-0 renal
[49] = tested on: MDA-MB-231 breast
[50] = tested on: SNB-75 CNS
[51] = tested on: EKVX NSCLC
[52] = tested on: CCRF-CEM leukemia
[53] = tested on: HS 578T breast
[54] = tested on: PC-3 prostate
[55] = tested on: T-47D breast
[56] = tested on: SK-OV-3 ovarian
[57] = tested on: TK-10 renal
[58] = tested on: NCI-H226 lung
[59] = tested on: MOLT-4 leukemia

Measured: TGI

CN1CCOC1(C)c1ccccc1 (centres undefined)
> 100 µM: all assays above
